Six compounds from US11208387B2, “Macrocyclic broad spectrum antibiotics” (Genentech, Inc., priority 2019, dated 2021) can be followed below.

SMILES strings stand for the structures. Converted amounts (≈) assume the structure as drawn. Like-named read-outs stand apart in the source and are kept apart here.

Experiment [1] concerns Klebsiella pneumoniae ATCC 700603. The experiment in a line: Serum MIC, broth micro-dilution. In kind it is cell-based. The following applies: Klebsiella pneumoniae, read-out: K pneumoniae 700603 Serum MIC. A digest of the protocol:
(§1)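 CLSI broth micro-dilution MIC run in 50% v/v cation-adjusted Mueller Hinton II broth plus 50% v/v mouse serum. Compounds were serially 2-fold diluted (10 concentrations) from a top concentration of 64, 4, 0.5 or 0.13 μg/mL; inoculum at final OD600 0.0005, incubated 35° C for 22 hours.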
Background: In broth dilution the organism is exposed to a series of concentrations in liquid medium.

The subject of experiment [2] is Escherichia coli strain ATCC 25922. The experiment in a line: Serum MIC, broth micro-dilution. The following applies: Escherichia coli, read-out: E. coli 25922 Serum MIC. In kind it is cell-based. A digest of the protocol:
as §1

Experiment [3] concerns Pseudomonas aeruginosa PA01. The experiment in a line: Serum MIC, broth micro-dilution. The following applies: Pseudomonas aeruginosa, read-out: P. aeruginosa 01 Serum MIC. In kind it is cell-based. A digest of the protocol:
as §1

Experiment [4] has as its system Acinetobacter baumannii ATCC 17978. The experiment in a line: Serum MIC, broth micro-dilution. The following applies: Acinetobacter baumannii. In kind it is cell-based. The gist of the method: as §1
Experiment [5] relates to isolated liver mitochondria. The experiment in a line: Mitochondrial oxygen consumption rate (OCR) assay. The conditions noted are these: isolated rat liver mitochondria, state 3 (S3) respiration, glutamate/malate; Table 3. In kind it is biochemical, Sprague-Dawley rats. An excerpt: Male Sprague-Dawley rats (8-10 weeks of age) were euthanized with an overdose of carbon dioxide. The liver was rapidly excised and placed in ice-cold phosphate-buffered saline (PBS) before isolation process. Mitochondria were isolated using the MitoCheck® Mitochondrial Isolation Kit (Cayman Chemical #701010, Ann Arbor, Mich.) according to manufacturer's instructions. In brief, approximately 10-14 grams of liver tissues were finely minced using a pair of scissors, and washed repeatedly with ice-cold PBS, followed by Mito Isolation Buffer. The minced tissues were homogenized with 30 ml Mito Homogenization Buffer in 40 ml dounce homogenizer and a smooth glass grinder. The homogenate was split into two clean 30 ml polycarbonate tubes and centrifuged at 1,000×g, 4° C., for 3 minutes. The supernatant was subjected to further centrifugation at 10,000×g, 4° C., for 10 minutes. The supernatant was discarded and mitochondrial pellet was suspended in Mito Isolation Buffer using a glass stirring rod and stored on ice until use. Protein concentration of mitochondria was determined using a bicinchoninic acid protein assay kit (Thermo Scientific, Waltham, Mass.).
Oxygen consumption was monitored as essentially described by Will et al., “Analysis of mitochondrial function using phosphorescent oxygen-sensitive probes,” Nature Protocols Vol. 1(6) (2006) 2563. Briefly, isolated mitochondria (50 μg mitochondrial proteins/state 3 (S3) of mitochondrial respiration for inhibitor identification, 100 μg/S2 for uncoupler identification) were incubated with compounds in 25 μl of Measurement Buffer (MB: 250 mM sucrose, 15 mM KCl, 1 mM EGTA, 5 mM MgCl2, 30 mM K2HPO4, pH 7.4) including 1% DMSO on ice for 1 hour, then mixed with 25 μl of substrate mixture including an oxygen-sensitive phosphorescent dye (MitoXpress Xtra, Agilent, Santa Clara, Calif.), glutamate (25 mM, G1626, Sigma, St. Louis, Mo.), malate (25 mM, M6413, Sigma), ADP (3.3 mM, A2754, Sigma, only for S3 of mitochondrial respiration), Fatty acid free BSA (0.1%, A0281, Sigma), and a complex II-specific inhibitor TTFA (2 μM, T27006, Sigma for the assessment of complex I-mitochondrial respiration with glutamate/malate) in a black wall/clear bottom 384-well plate. The mixtures were covered with HS mineral oil (Agilent) using the Viaflo 384-channel pipette (Integra, Hudson, N.H.). Oxygen consumption was measured for 30 min at 30° C. using a spectrofluorimeter (FLUOstar Omega, BMG Labtech, Cary, N.C.). In S3, DMSO vehicle control and antimycin A (10 μM) were used to define 0% and 100% inhibition. In S2, DMSO vehicle and FCCP (0.5-1 μM) was used to define 0% and 100% uncoupling, respectively. Area under curve typically in a range of 0-12 min (S3) or 0-24 min (S2) was used for calculations. IC50 or UC50 (uncoupling concentration), a concentration that causes 50% of inhibition or maximal (uncoupling) activation of oxygen consumption, was used to evaluate experimental quality. Data were presented as μM (per 50 μg (S3) or 100 μg (S2) mitochondrial proteins). Compounds with IC50: <100 μM (S3) and/or UC50: <200 μM (S2) were considered as high-risk on mitochondrial toxicity. Compounds with 25-50% changes in inhibition and/or uncoupling were categorized as medium-risk, since compounds with >25% changes are considered as responders.
Toxicity associated with mitochondrial dysfunction has presented a problem for promising potential antibiotics as we as other types of therapeutics. The mitochondrial oxygen consumption rate (OCR) assay is considered a reliable indicator of potential internal organ toxicity issues that may occur with powerful antibiotics. The carboxylate compounds of the invention show unexpected lower toxicity than prior art “glycine nitrile” arylomycin analogs (see, e.g., WO 2018/149419) in the mitochondrial oxygen consumption rate (OCR) assay.

[6] abbreviates: ATCC17978, 22 h, read-out: A. baumanii 17978 Serum MIC.
Setting [7] is: ATCC17978, 22 h, read-out: Acinetobacter baumanii 17978 Serum MIC.
Setting [8] is: ATCC700603, 50% v/v mouse serum in Mueller Hinton II cation adjusted Broth, 35° C., 22 hours, Table 4.
[9] abbreviates: ATCC25922, 50% v/v mouse serum in Mueller Hinton II cation adjusted Broth, 35° C., 22 hours, Table 4.
The mark [10] stands for this setting: PA01, 50% v/v mouse serum in Mueller Hinton II cation adjusted Broth, 35° C., 22 hours, Table 4.
Where [11] appears, read: ATCC17978, 50% v/v mouse serum in Mueller Hinton II cation adjusted Broth, 35° C., 22 hours, Table 4, read-out: A. baumanii 17978 Serum MIC.
Where [12] appears, read: ATCC17978, 50% v/v mouse serum in Mueller Hinton II cation adjusted Broth, 35° C., 22 hours, Table 5, read-out: Acinetobacter baumanii 17978 Serum MIC.

As usually defined, the MIC is the lowest concentration found to suppress growth. Broadly, the IC50 is the concentration that inhibits the measured activity by half. A high value points to weaker potency. On to `Cc1nc(-c2ccc(OCCC(C)(C)C)cc2)nc(N)c1C(=O)N[C@@H](CCN)C(=O)N(C)[C@@H]1C(=O)N[C@@H](C)C(=O)N[C@H](C(=O)O)Cc2ccc(OC[C@H](O)CN)c(c2)-c2cc1cc(OC[C@H](O)CN)c2O` [Example 18, (8S,11S,14S)-18-hydroxy-11-methyl-14-[methyl-[(2S)-4-amino-2-[[4-amino-2-[4-(3,3-dimethyl-butoxy)phenyl]-6-methyl-pyrimidine-5-carbonyl]amino]-butanoyl]amino]-10,13-dioxo-3,17-bis[(2R)-3-amino-2-hydroxy-propoxy]-9,12-diazatricyclo-[13.3.1.12,6]icosa-1(18),2(20),3,5,15(19), 16-hexaene-8-carboxylic acid], for which the MIC in experiment [1] (ATCC700603, 22 h) was 0.25 µM (≈ 0.247 µg/mL); in experiment [2] (ATCC25922, 22 h), 0.25 µM (≈ 0.247 µg/mL); in experiment [3] (PA01, 22 h), 4 µM (≈ 3.95 µg/mL); in experiment [4] (setting [6]) it was 8 µM (≈ 7.9 µg/mL); in experiment [4] (setting [7]), 8 µM (≈ 7.9 µg/mL). This compound also yielded an IC50 in experiment [5] of 119 µM.

`Cc1nc(-c2ccc(OCCC(C)(C)C)cc2)ncc1C(=O)N[C@@H](CNS(N)(=O)=O)C(=O)N(C)[C@@H]1C(=O)N[C@@H](C)C(=O)N[C@H](C(=O)O)Cc2ccc(OC[C@H](O)CN)c(c2)-c2cc1cc(OC[C@H](O)CN)c2O` [Example 16, (8S,11S,14S)-18-hydroxy-11-methyl-14-[methyl-[(2S)-2-[[2-[4-(3,3-dimethyl-butoxy)phenyl]-4-methyl-pyrimidine-5-carbonyl]amino]-3-(sulfamoylamino)-propanoyl]amino]-10,13-dioxo-3,17-bis[(2R)-3-amino-2-hydroxy-propoxy]-9,12-diazatricyclo-[13.3.1.12,6]icosa-1(18),2(20),3,5,15(19), 16-hexaene-8-carboxylic acid]: the MIC in experiment [1] (ATCC700603, 22 h) is 0.63 µM (≈ 0.653 µg/mL); in experiment [2] (ATCC25922, 22 h), 0.44 µM (≈ 0.456 µg/mL); in experiment [3] (PA01, 22 h) it was 6 µM (≈ 6.22 µg/mL); in experiment [4] (setting [6]), 12 µM (≈ 12.4 µg/mL); in experiment [4] (setting [7]), 12 µM (≈ 12.4 µg/mL). This compound showed an IC50 in experiment [5] of 33 µM.

Regarding `Cc1nc(-c2ccc(C(C)(C)C)cc2)nc(N)c1C(=O)N[C@@H](CNS(N)(=O)=O)C(=O)N(C)[C@@H]1C(=O)N[C@@H](C)C(=O)N[C@H](C(=O)O)Cc2ccc(OC[C@H](O)CN)c(c2)-c2cc1cc(OC[C@@H](O)CN)c2O` [Example 50, (8S,11S,14S)-14-[[(2S)-2-[[4-amino-2-(4-tert-butylphenyl)-6-methyl-pyrimidine-5-carbonyl]amino]-3-(sulfamoylamino)-propanoyl]-methyl-amino]-3-[(2R)-3-amino-2-hydroxy-propoxy]-17-[(2S)-3-amino-2-hydroxy-propoxy]-18-hydroxy-11-methyl-10,13-dioxo-9,12-diazatri-cyclo[13.3.1.12,6]icosa-1(19),2(20),3,5,15,17-hexaene-8-carboxylic acid], the MIC in experiment [1] (setting [8]) came out at 0.75 µM (≈ 0.756 µg/mL); in experiment [2] (setting [9]), 0.75 µM (≈ 0.756 µg/mL); in experiment [3] (setting [10]) it was 4 µM (≈ 4.03 µg/mL); in experiment [4] (setting [11]) it was 8 µM (≈ 8.06 µg/mL); in experiment [4] (setting [12]), 8 µM (≈ 8.06 µg/mL). In experiment [5], this compound displayed an IC50 of more than 100 µM.

Consider `Cc1nc(-c2ccc(C(C)(C)C)cc2O)nc(N)c1C(=O)N[C@@H](CCN)C(=O)N(C)[C@@H]1C(=O)N[C@@H](C)C(=O)N[C@H](C(=O)O)Cc2ccc(OC[C@H](O)CN)c(c2)-c2cc1cc(OC[C@H](O)CN)c2O` [Example 43, (8S,11S,14S)-14-[[(2S)-4-amino-2-[[4-amino-2-(4-tert-butyl-2-hydroxy-phenyl)-6-methyl-pyrimidine-5-carbonyl]amino]-butanoyl]-methyl-amino]-3,17-bis[(2R)-3-amino-2-hydroxy-propoxy]-18-hydroxy-11-methyl-10,13-dioxo-9,12-diazatricyclo-[13.3.1.12,6]icosa-1(19),2(20),3,5,15,17-hexaene-8-carboxylic acid], for which the MIC in experiment [1] (setting [8]) worked out at 0.25 µM (≈ 0.24 µg/mL); in experiment [2] (setting [9]) it was 0.25 µM (≈ 0.24 µg/mL); in experiment [3] (setting [10]), 8 µM (≈ 7.67 µg/mL); in experiment [4] (setting [11]), 8 µM (≈ 7.67 µg/mL); in experiment [4] (setting [12]) it was 8 µM (≈ 7.67 µg/mL). The IC50 in experiment [5] was more than 100 µM.

Regarding `Cc1nc(-c2ccc(C(C)(C)C)cc2F)nc(N)c1C(=O)N[C@@H](CNS(N)(=O)=O)C(=O)N(C)[C@@H]1C(=O)N[C@@H](C)C(=O)N[C@H](C(=O)O)Cc2ccc(OC[C@H](O)CN)c(c2)-c2cc1cc(OC[C@H](O)CN)c2O` [Example 62, (8S,11S,14S)-14-[[(2S)-2-[[4-amino-2-(4-tert-butyl-2-fluoro-phenyl)-6-methyl-pyrimidine-5-carbonyl]-amino]-3-(sulfamoyl-amino)propanoyl]-methyl-amino]-3,17-bis[(2R)-3-amino-2-hydroxy-propoxy]-18-hydroxy-11-methyl-10,13-dioxo-9,12-diazatricyclo-[13.3.1.12,6]icosa-1(18),2(20),3,5,15(19), 16-hexaene-8-carboxylic acid], the MIC came out at 1 µM (≈ 1.03 µg/mL) in experiment [1] (setting [8]); 1 µM (≈ 1.03 µg/mL) in experiment [2] (setting [9]); 6 µM (≈ 6.16 µg/mL) in experiment [3] (setting [10]); 16 µM (≈ 16.4 µg/mL) in experiment [4] (setting [11]); 16 µM (≈ 16.4 µg/mL) in experiment [4] (setting [12]). This compound also yielded an IC50 in experiment [5] of more than 100 µM.

In the case of `Cc1nc(-c2ccc(OC(C)C)cc2)ncc1C(=O)N[C@@H](CCN)C(=O)N(C)[C@@H]1C(=O)N[C@@H](C)C(=O)N[C@H](C(=O)O)Cc2ccc(OC[C@H](O)CN)c(c2)-c2cc1cc(OC[C@H](O)CN)c2O` [Example 20, (8S,11S,14S)-18-hydroxy-11-methyl-14-[methyl-[(2S)-4-amino-2-[[2-(4-isopropoxyphenyl)-4-methyl-pyrimidine-5-carbonyl]amino]-butanoyl]amino]-10,13-dioxo-3,17-bis[(2R)-3-amino-2-hydroxy-propoxy]-9,12-diazatricyclo-[13.3.1.12,6]icosa-1(18),2(20),3,5,15(19), 16-hexaene-8-carboxylic acid], the MIC was 0.46 µM (≈ 0.428 µg/mL) in experiment [1] (ATCC700603, 22 h); 0.58 µM (≈ 0.539 µg/mL) in experiment [2] (ATCC25922, 22 h); 64 µM (≈ 59.5 µg/mL) in experiment [3] (PA01, 22 h); 16 µM (≈ 14.9 µg/mL) in experiment [4] (setting [6]); 16 µM (≈ 14.9 µg/mL) in experiment [4] (setting [7]). This compound also gave an IC50 in experiment [5] of more than 250 µM.
